In ChEMBL document CHEMBL1201862, “PubChem BioAssay data set” (2004):
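96-well plates; 48 h exposure; 5 concentrations. Endpoints by linear interpolation between flanking doses. Not reached: highest tested concentration assigned. GI50 marks 50% less growth.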 Calls of active or inactive are those of the source. Cut-off read from the data, not from the text of the source: active = GI50 up to about 1.1 µM and inactive = higher.

Assays:
Assay in all cases: NCI-60 cell line screen, 48 h
[1] = test system: CAKI-1
[2] = test system: DU-145
[3] = test system: EKVX
[4] = test system: HT-29
[5] = test system: K562
[6] = test system: LOX IMVI
[7] = test system: MCF7
[8] = test system: MDA-N
[9] = test system: MOLT-4
[10] = test system: NCI-H23
[11] = test system: OVCAR-3
[12] = test system: RPMI-8226
[13] = test system: SF-295
[14] = test system: SF-539
[15] = test system: SK-MEL-2
[16] = test system: SK-MEL-5
[17] = test system: TK-10
[18] = test system: UACC-257
[19] = test system: UO-31
[20] = test system: NCI/ADR-RES

Row | SMILES | GI50 [1] | GI50 [2] | GI50 [3] | GI50 [4] | GI50 [5] | GI50 [6] | GI50 [7] | GI50 [8] | GI50 [9] | GI50 [10] | GI50 [11] | GI50 [12] | GI50 [13] | GI50 [14] | GI50 [15] | GI50 [16] | GI50 [17] | GI50 [18] | GI50 [19] | GI50 [20]
1 | O=[N+]([O-])/C(C(Cl)=C(Cl)Cl)=C(\SCc1ccccc1)N1CCCCC1 | > 100 µM (inactive) | 41.3 µM (inactive) | 70.3 µM (inactive) | 36.6 µM (inactive) | 27.8 µM (inactive) | 15.9 µM (inactive) | 12.6 µM (inactive) | 17.5 µM (inactive) | 10.7 µM (inactive) | 18 µM (inactive) | 14.1 µM (inactive) | 11.5 µM (inactive) | 38.5 µM (inactive) | 21.5 µM (inactive) | 21.5 µM (inactive) | 15.8 µM (inactive) | 38.4 µM (inactive) | 28.4 µM (inactive) | 24.2 µM (inactive) | 
2 | CSC1=C(C#N)C(=O)N(c2ccc(C)cc2)C(=S)C1C#N (stereo unspecified) | > 100 µM (inactive) |  | > 100 µM (inactive) | > 100 µM (inactive) | > 100 µM (inactive) | > 100 µM (inactive) | > 100 µM (inactive) | > 100 µM (inactive) | > 100 µM (inactive) |  |  |  | > 100 µM (inactive) | > 100 µM (inactive) | > 100 µM (inactive) | > 100 µM (inactive) | > 100 µM (inactive) | > 100 µM (inactive) |  | > 100 µM (inactive)
3 | Cc1ccc(/N=c2/oc3c(ccc4ccccc43)nc2Nc2ccc(C)cc2)cc1 | > 100 µM (inactive) | > 100 µM (inactive) | > 100 µM (inactive) | > 100 µM (inactive) | > 100 µM (inactive) | > 100 µM (inactive) |  | > 100 µM (inactive) | > 100 µM (inactive) | > 100 µM (inactive) |  | > 100 µM (inactive) | > 100 µM (inactive) | > 100 µM (inactive) | > 100 µM (inactive) | > 100 µM (inactive) | > 100 µM (inactive) | > 100 µM (inactive) | > 100 µM (inactive) | > 100 µM (inactive)
4 | O=C1C=C/C(=N/c2ccccc2)c2ccccc21 | 14.8 µM (inactive) | 1.68 µM (inactive) | 2.06 µM (inactive) | 16.9 µM (inactive) | 12.5 µM (inactive) | 4.18 µM (inactive) | 5.74 µM (inactive) |  | 5.41 µM (inactive) | 2.62 µM (inactive) | 1.89 µM (inactive) | 12.8 µM (inactive) | 7.4 µM (inactive) | 15.1 µM (inactive) | 2.19 µM (inactive) | 1.31 µM (inactive) | 16.9 µM (inactive) | 2.64 µM (inactive) | 10.3 µM (inactive) | 15.1 µM (inactive)
5 | O=c1c(C(c2cc(OCc3ccccc3)cc(OCc3ccccc3)c2)c2c(O)oc3ccccc3c2=O)c(O)oc2ccccc12 | 7.26 µM (inactive) | 6.35 µM (inactive) | 9.04 µM (inactive) | 4.15 µM (inactive) | 3.35 µM (inactive) | 15.3 µM (inactive) | 12.3 µM (inactive) |  | 3.91 µM (inactive) | 4.42 µM (inactive) | 13.4 µM (inactive) | 1.66 µM (inactive) | 5.42 µM (inactive) | 5.86 µM (inactive) | 3.86 µM (inactive) | 6.59 µM (inactive) | 11.5 µM (inactive) | 13 µM (inactive) | 4.85 µM (inactive) | 17.6 µM (inactive)
6 | CC(=O)OCc1ccc2c(c1)C(O)NC(=O)O2 (stereo unspecified) | > 100 µM (inactive) | > 100 µM (inactive) | > 100 µM (inactive) | > 100 µM (inactive) | 31 µM (inactive) | 47.2 µM (inactive) | 78.9 µM (inactive) |  | 12.8 µM (inactive) | > 100 µM (inactive) | 21.8 µM (inactive) | 19.8 µM (inactive) | > 100 µM (inactive) | > 100 µM (inactive) | > 100 µM (inactive) | 72.9 µM (inactive) | > 100 µM (inactive) | > 100 µM (inactive) | > 100 µM (inactive) | > 100 µM (inactive)
7 | Cc1cccc(/N=N/C(=O)NNc2cccc(C)c2C)c1C | 39 µM (inactive) | 37 µM (inactive) |  | 56.9 µM (inactive) | 33.7 µM (inactive) | 25.8 µM (inactive) |  | 36.3 µM (inactive) | > 10 µM (inactive) | 32.7 µM (inactive) | 45.4 µM (inactive) | 29.4 µM (inactive) |  |  | 21.9 µM (inactive) | 28.6 µM (inactive) | 37.7 µM (inactive) | 34.7 µM (inactive) | 30.8 µM (inactive) | 
8 | CNC(=O)c1nc[nH]c1/N=N/N(C)N | > 100 µM (inactive) | > 100 µM (inactive) | > 100 µM (inactive) | > 100 µM (inactive) | > 100 µM (inactive) | 74.6 µM (inactive) |  | > 100 µM (inactive) | > 100 µM (inactive) | > 100 µM (inactive) | > 100 µM (inactive) | > 100 µM (inactive) | > 100 µM (inactive) | > 100 µM (inactive) | > 100 µM (inactive) | 49.9 µM (inactive) | > 100 µM (inactive) | > 100 µM (inactive) | > 100 µM (inactive) | > 100 µM (inactive)
9 | [O-][S+](Cc1ccccc1)c1ccccc1Cn1cccc1 (stereo unspecified) | > 100 µM (inactive) | > 100 µM (inactive) | > 100 µM (inactive) | > 100 µM (inactive) | 71.1 µM (inactive) | > 100 µM (inactive) | > 100 µM (inactive) |  |  | > 100 µM (inactive) | > 100 µM (inactive) | > 100 µM (inactive) | 60.4 µM (inactive) | > 100 µM (inactive) | > 100 µM (inactive) | > 100 µM (inactive) | > 100 µM (inactive) | > 100 µM (inactive) | > 100 µM (inactive) | > 100 µM (inactive)
10 | Clc1ccc2c(SCC3CO3)c3ccccc3nc2c1 (stereo unspecified) | 1.49 µM (inactive) | 1.57 µM (inactive) | 4.9 µM (inactive) | 1.64 µM (inactive) | 1.87 µM (inactive) | 2.25 µM (inactive) | 1.47 µM (inactive) |  | 1.85 µM (inactive) | 3.54 µM (inactive) | 1.73 µM (inactive) | 2.42 µM (inactive) | 16.5 µM (inactive) | 2.13 µM (inactive) | 2.7 µM (inactive) | 4.84 µM (inactive) | 1.74 µM (inactive) | 2.49 µM (inactive) | 1.76 µM (inactive) | 2.43 µM (inactive)
11 | N/N=C(\N)SCCCCCCCCCCS/C(N)=N/N | 36.1 µM (inactive) | 20.9 µM (inactive) | 31.1 µM (inactive) | 14.6 µM (inactive) | 15.1 µM (inactive) | 11.5 µM (inactive) | 23.6 µM (inactive) |  |  | 25.8 µM (inactive) | 19.7 µM (inactive) | 23.3 µM (inactive) | 23 µM (inactive) | 29.6 µM (inactive) | 16.7 µM (inactive) | 21 µM (inactive) | 20.3 µM (inactive) | 30.1 µM (inactive) | 15.1 µM (inactive) | 21.1 µM (inactive)
12 | CCCC(=O)OC1C(CO)OC(n2cc(F)c(=O)[nH]c2=O)C1F (stereo unspecified) | 50.2 µM (inactive) | 17.3 µM (inactive) | 67 µM (inactive) | 55.2 µM (inactive) |  | > 100 µM (inactive) | 0.604 µM (active) |  | > 100 µM (inactive) | > 100 µM (inactive) | 54.6 µM (inactive) | 1.57 µM (inactive) | 82 µM (inactive) | 1.67 µM (inactive) | > 100 µM (inactive) | 53.2 µM (inactive) | > 100 µM (inactive) | > 100 µM (inactive) | > 100 µM (inactive) | 11.3 µM (inactive)
13 | O=c1c(C(c2ccc(-c3ccccc3)cc2)c2c(O)oc3ccccc3c2=O)c(O)oc2ccccc12 | 19.9 µM (inactive) | 59.8 µM (inactive) | 46.6 µM (inactive) | 20.3 µM (inactive) | 45.5 µM (inactive) | 19.1 µM (inactive) |  | 19.4 µM (inactive) | 33.5 µM (inactive) | 24.8 µM (inactive) | 24.3 µM (inactive) | 25.9 µM (inactive) |  |  | 22.5 µM (inactive) | 28.7 µM (inactive) | 51.9 µM (inactive) | 34.4 µM (inactive) | 17.7 µM (inactive) | 21.6 µM (inactive)
14 | O=C(O)C1(C(=O)O)CC1(C(=O)O)C(=O)O | > 100 µM (inactive) | > 100 µM (inactive) | > 100 µM (inactive) | > 100 µM (inactive) | > 100 µM (inactive) | > 100 µM (inactive) | > 100 µM (inactive) |  | > 100 µM (inactive) | > 100 µM (inactive) |  |  | > 100 µM (inactive) | > 100 µM (inactive) | > 100 µM (inactive) | > 100 µM (inactive) | > 100 µM (inactive) | > 100 µM (inactive) | > 100 µM (inactive) | > 100 µM (inactive)
15 | CCN1CCC(O)(c2ccccc2)C(C(=O)c2ccccc2)C1 (stereo unspecified) | 14 µM (inactive) |  | > 49.2 µM (inactive) | 20.4 µM (inactive) | 23.7 µM (inactive) | 17.4 µM (inactive) |  |  | 21.7 µM (inactive) | > 53 µM (inactive) | 16.3 µM (inactive) | 6.35 µM (inactive) | > 65.6 µM (inactive) | 62.5 µM (inactive) | > 100 µM (inactive) | 33.7 µM (inactive) | 23.2 µM (inactive) | 19.6 µM (inactive) | > 46.2 µM (inactive) | 
